Results on six molecules are retold here after paper PMC12135063, “Pharmaceutical Analysis of Protein–Peptide Coformulations and the Influence of Polysorbates” (Molecular Pharmaceutics, 2025).

Data set [1] deals with T1, HSA (Homo sapiens, UniProt P02768).
T1 construct: purchased Sigma-Aldrich UK; host or cells: human serum
Briefly: ITC titration of polysorbate into HSA in the absence and presence of MEDI7219. The format is binding. To be noted: for ΔG / ΔH / –TΔS / Kd: 30 °C; for Kd: [HSA] = 0.15 mM, read-out: dissociation constant; for αii (K A/B/K A): ratio of association constants with/without MEDI7219. On the procedure: Lyophilized protein powders were rehydrated by adding buffer to the protein to achieve a concentration of 10 mg/mL, then stored at 5 °C for 72 h or until fully dissolved. Polysorbate concentrations chosen were 0.1× and 1× the critical micelle concentration (CMC) of each respective polysorbate. Due to the dilution of injection by the ITC, polysorbate formulations were formulated at 10 times the desired concentration. ITC experiments were performed using a Microcal PEAQ-ITC instrument from Malvern Panalytical. Prior to each experiment, the sample cell and syringe were cleaned using 20% Contrad 70 detergent, rinsed with ultrapure water, and dried using methanol. Titration experiments were conducted at 30 °C to ensure that the experimental temperature was above laboratory ambient temperature. As the Microcal PEAQ-ITC lacks a cooling unit, it was necessary to conduct experiments at a temperature that could be maintained consistently. The reference cell was filled with ultrapure water for all experiments. The 200 μL sample cell was filled with protein solution, and the 40 μL injection syringe was filled with polysorbate solution and equilibrated at 5 °C below the experimental temperature. […] Experiments comprised 14 injections of 2.5 μL at an injection speed of 0.5 μL/s. The time between injections was set long enough to allow the heat signals to return to the baseline before the next injection. The solution in the reaction cell was continuously stirred at a speed of 500 rpm. Experiments requiring the titration of peptide or surfactant into protein–surfactant or protein–peptide required the continuation of one experiment into the next, to maintain precise concentration ratios between experimental pathways. As a result, once an experiment had concluded, excess solution was withdrawn and the next titration was conducted into the resulting solution. A reference experiment of polysorbate injected into buffer solution was conducted under identical conditions and subtracted from each run that contained polysorbate in the injection syringe. […] Data were analyzed using MicroCal PEAQ-ITC Analysis Software v1.41. The binding model was analyzed using the one set of binding sites software preset, resulting in the values of changes in the Gibbs free energy (ΔG), enthalpy (ΔH), and entropy in relation to temperature (−TΔS). Each experiment was repeated a minimum of three times to assess the reproducibility.
(In ITC the heat of successive injections is recorded.)

Data set [2] concerns the target T1, HSA. Briefly: DSC thermal stability of HSA with MEDI7219 and polysorbates. The format is physicochemical. To be noted: DSC of 10 mg/mL HSA, no polysorbate, MEDI7219 10 mg/mL where ligand. The procedure: Lyophilized protein and MEDI7219 were rehydrated by adding buffer to achieve a concentration of 30 mg/mL, then stored at 5 °C for 72 h or until fully dissolved. Polysorbate solutions were prepared at 3 times higher than the desired concentration to account for dilution in the formulation after mixing with MEDI7219. Polysorbate concentrations in experiments were 0.1× and 1× each polysorbates respective CMC. Samples were produced by adding equal volumes of each component to provide the desired formulation. DSC experiments were conducted using a Microcal PEAQ-DSC instrument from Malvern Panalytical. Prior to each experiment, DSC cells were washed with 2% Decon 90 detergent and then rinsed with ultrapure water. The DSC capillary cell volume was 250 μL for both reference and sample cells; for each experiment, the reference cell contained buffer solution. […] A reference scan of the buffer solution was conducted under identical conditions and subtracted from each run. Data were analyzed using MicroCal PEAQ-DSC Analysis Software v1.64.

The target in data set [3] is T1, HSA. Briefly: ITC titration of MEDI7219 into HSA in the absence and presence of polysorbate. The data set is classed as binding. The note with it: for Kd: read-out: dissociation constant; for αi (K B/A/K B): ratio of association constants with/without polysorbate. The procedure: Lyophilized protein powders were rehydrated by adding buffer to the protein to achieve a concentration of 10 mg/mL, then stored at 5 °C for 72 h or until fully dissolved. Polysorbate concentrations chosen were 0.1× and 1× the critical micelle concentration (CMC) of each respective polysorbate. Due to the dilution of injection by the ITC, polysorbate formulations were formulated at 10 times the desired concentration. ITC experiments were performed using a Microcal PEAQ-ITC instrument from Malvern Panalytical. Prior to each experiment, the sample cell and syringe were cleaned using 20% Contrad 70 detergent, rinsed with ultrapure water, and dried using methanol. Titration experiments were conducted at 30 °C to ensure that the experimental temperature was above laboratory ambient temperature. As the Microcal PEAQ-ITC lacks a cooling unit, it was necessary to conduct experiments at a temperature that could be maintained consistently. The reference cell was filled with ultrapure water for all experiments. The 200 μL sample cell was filled with protein solution, and the 40 μL injection syringe was filled with polysorbate solution and equilibrated at 5 °C below the experimental temperature. The reference power was set to 41.86 μJ/s (10 μcal/s). Experiments comprised 14 injections of 2.5 μL at an injection speed of 0.5 μL/s. The time between injections was set long enough to allow the heat signals to return to the baseline before the next injection. The solution in the reaction cell was continuously stirred at a speed of 500 rpm. Experiments requiring the titration of peptide or surfactant into protein–surfactant or protein–peptide required the continuation of one experiment into the next, to maintain precise concentration ratios between experimental pathways. As a result, once an experiment had concluded, excess solution was withdrawn and the next titration was conducted into the resulting solution. A reference experiment of polysorbate injected into buffer solution was conducted under identical conditions and subtracted from each run that contained polysorbate in the injection syringe. For experiments that contained MEDI7219 in the injection syringe, a control experiment could not be subtracted in the same manner as the polysorbate experiments. This was suspected to be a consequence of limitations in the software and the interactions generating small binding heats, leading to a noisier thermogram. However, a fitted offset was used instead, which reduced noise and allowed a smooth heat integration. Data were analyzed using MicroCal PEAQ-ITC Analysis Software v1.41. The binding model was analyzed using the one set of binding sites software preset, resulting in the values of changes in the Gibbs free energy (ΔG), enthalpy (ΔH), and entropy in relation to temperature (−TΔS). Each experiment was repeated a minimum of three times to assess the reproducibility.

The target of data set [4] is T1, HSA. Also on record: method as in not given. To be noted: native GLP-1, reported value; ref not given; cited from earlier work.
Where [5] appears, read: polysorbate (1 × CMC) → HSA + MEDI7219.
[6] abbreviates: polysorbate (1 × CMC) → HSA + MEDI7219, [MEDI7219] = 2.5 mM.
Setting [7] is: polysorbate (1 × CMC) → HSA, MEDI7219 absent.
[8] abbreviates: MEDI7219 → HSA + RG T20 (1 × CMC), 30 °C.
Setting [9] is: MEDI7219 → HSA + RG T80 (1 × CMC), 30 °C.
Setting [10] is: MEDI7219 → HSA + SR T20 (1 × CMC), 30 °C.
[11] abbreviates: MEDI7219 → HSA + SR T80 (1 × CMC), 30 °C.
Setting [12] is: MEDI7219 → HSA, no polysorbate, 30 °C.

“And” between values parts separate entries of the source, which are not always exact repeats. Equal entries are not always repeated. Where two headings read alike, the source gives them in different places. *1 amine or outer side, *2 acyl side, *3 side chain or, on linkers, in order; H or OH if unused. Where a SMILES comes first, the peptide text is derived from it. Side-chain parts run from the residue outwards. [ ]: non-standard residue; d: D form. The star is where a group is joined. γGlu = O=C(O)[C@H](CCC(=O)[*:2])N[*:1]; αMeF = C[C@](N)(Cc1ccccc1)C(=O)O; αMeK = C[C@](N)(CCCCN)C(=O)O; Lauroyl = CCCCCCCCCCCC(=O)*; αMeS = C[C@](N)(CO)C(=O)O; AEEA = NCCOCCOCC(=O)O; Aib = CC(C)(N)C(=O)O

“Polyoxyethylene (20) sorbitan monolaurate [SR T20]”: in data set [1] (setting [5]), the ΔG entry is given as “–16.10 (±0.81) kJ mol^–1”, the ΔH entry is “–4.19 (±0.62) kJ mol^–1”, the “–TΔS” value was “–11.90 (±0.50) kJ mol^–1” and the “αii (K A/B/K A)” value is listed as 0.43. The Kd in data set [1] (setting [6]) came out at 1690 µM. For the same molecule, in data set [1] (setting [7]), the ΔG entry is “–18.20 (±0.91) kJ mol^–1”, the ΔH result is “–43.10 (±6.15) kJ mol^–1”, the “–TΔS” value was 24.90 (±1.03) kJ mol^–1 and the Kd amounted to 721 µM.

Consider “polyoxyethylene (20) sorbitan monooleate [SR T80]”, for which, in data set [1] (setting [5]), the ΔG entry is given as “–16.80 (±0.84) kJ mol^–1”, the ΔH entry is “–8.72 (±2.7 × 10^–5) kJ mol^–1”, the “–TΔS” value was “–8.09 (±0.33) kJ mol^–1” and the “αii (K A/B/K A)” value is recorded as 0.40. Besides, the Kd in data set [1] (setting [6]) amounted to 1280 µM. Further, in data set [1] (setting [7]), the ΔG entry is “–19.10 (±0.10) kJ mol^–1”, the ΔH entry was “–30.10 (±2.02) kJ mol^–1”, the “–TΔS” value is on record as 11.00 (±0.45) kJ mol^–1 and the Kd amounted to 513 µM.

Consider `CCCCCCCCCCCC(=O)N[C@@H](CCC(=O)NCCOCCOCC(=O)NCCOCCOCC(=O)NCCCC[C@H](NC(=O)[C@H](C)NC(=O)[C@@H](NC(=O)[C@](C)(Cc1ccccc1)NC(=O)[C@H](CCC(=O)O)NC(=O)[C@](C)(CCCCN)NC(=O)[C@H](C)NC(=O)[C@H](C)NC(=O)[C@H](CCC(=O)O)NC(=O)CNC(=O)[C@H](CCC(=O)O)NC(=O)[C@H](CC(C)C)NC(=O)[C@H](CCCCNC(=O)COCCOCCNC(=O)COCCOCCNC(=O)CC[C@H](NC(=O)CCCCCCCCCCC)C(=O)O)NC(=O)[C@H](CO)NC(=O)[C@](C)(CO)NC(=O)[C@@H](NC(=O)[C@H](CC(=O)O)NC(=O)[C@H](CO)NC(=O)[C@@H](NC(=O)[C@](C)(Cc1ccccc1)NC(=O)[C@H](CO)NC(=O)CNC(=O)[C@H](CCC(=O)O)NC(=O)C(C)(C)NC(=O)[C@@H](N)Cc1c[nH]cn1)[C@@H](C)O)C(C)C)[C@@H](C)CC)C(=O)N[C@H](C(=O)N[C@H](C(=O)N[C@@H](CCC(=O)O)C(=O)NCC(=O)NCC(N)=O)C(C)C)C(C)C)C(=O)O` [MEDI7219] (H-H[Aib]EGS[αMeF]TSDV[αMeS]SK([AEEA-AEEA-γGlu-Lauroyl])LEGEAA[αMeK]E[αMeF]IAK([AEEA-AEEA-γGlu-Lauroyl])VVEGG-NH2; N-terminus and C-terminus assumed), for which the “Tm 2” value in data set [2] is 74 °C and 74.0 (±0.1) °C. Further, the total area in data set [2] (20–105 °C at 60 °C/h) is recorded as 806.3 (±5.8) kJ/mol. For the same molecule, the ΔG result in data set [3] (setting [8]) is reported as “–21.8 (±0.87) kJ mol^–1”. Moreover, the “–TΔS” value in data set [3] (setting [8]) is listed as “–15.3 (±1.28) kJ mol^–1”; in data set [3] (setting [9]) it was “–52.1 (±4.34) kJ mol^–1”; in data set [3] (setting [10]), “–52.5 (±4.35) kJ mol^–1”; in data set [3] (setting [11]), “–51.3 (±6.16) kJ mol^–1”; in data set [3] (setting [12]) it was “–60.9 (±7.70) kJ mol^–1”. The Kd in data set [3] (setting [8]) amounted to 176 µM; in data set [3] (setting [9]), 24 µM; in data set [3] (setting [10]), 55.6 µM; in data set [3] (setting [11]), 35.1 µM; in data set [3] (MEDI7219 → HSA, no polysorbate, 30 °C, [HSA] = 0.15 mM, [MEDI7219] = 2.5 mM, average across all experiments), 40.3 µM. The ΔH is 25.3 (±0.70) kJ mol^–1 in data set [3] (setting [9]), 27.8 (±9.32) kJ mol^–1 in data set [3] (setting [10]), 25.4 (±1.03) kJ mol^–1 in data set [3] (setting [11]) and 35.4 (±8.19) kJ mol^–1 in data set [3] (setting [12]). The results for the “αi (K B/A/K B)” value in data set [3] (MEDI7219 → HSA + RG T80 (1 × CMC)) and in data set [3] (MEDI7219 → HSA + SR T80 (1 × CMC)) were 1.68 and 1.30, respectively. Further, the association constant in data set [3] (MEDI7219 → HSA, no polysorbate, 30 °C, example titration) was 2.4 × 10^4 M^–1. The “decrease of dissociation constant of MEDI7219” value in data set [3] (in the presence of RG T80 versus its absence) is given as 2 fold.

Regarding “native GLP-1: native glucagon-like peptide-1, literature comparison”, the association constant in data set [4] is 2.3 × 10^8 M^–1.

On to “Polyoxyethylene (20) sorbitan monolaurate [RG T20]”, for which, in data set [1] (setting [5]), the ΔG entry is listed as “–15.40 (±0.77) kJ mol^–1”, the ΔH entry was “–9.07 (±9.4 × 10^–7) kJ mol^–1”, the “–TΔS” value is listed as “–6.36 (±0.26) kJ mol^–1” and the “αii (K A/B/K A)” value was determined as 0.47. Moreover, in data set [1] (setting [6]), the Kd was 2210 µM. Also, in data set [1] (setting [7]), the ΔG entry is reported as “–17.30 (±0.87) kJ mol^–1”, the ΔH result is given as “–83.70 (±36.7) kJ mol^–1”, the “–TΔS” value is reported as 66.40 (±2.74) kJ mol^–1 and the Kd stood at 1030 µM.

As to “polyoxyethylene (20) sorbitan monooleate [RG T80]”, in data set [1] (setting [5]), the ΔG entry is “–16.00 (±0.80) kJ mol^–1”, the ΔH entry is recorded as “–8.75 (±4.46) kJ mol^–1”, the “–TΔS” value was “–7.25 (±0.23) kJ mol^–1” and the “αii (K A/B/K A)” value is recorded as 0.57. Further, in data set [1] (setting [6]), the Kd amounted to 1760 µM. For the same molecule, in data set [1] (setting [7]), the ΔG entry is recorded as “–17.40 (±0.87) kJ mol^–1”, the ΔH result is “–9.13 (±1.29) kJ mol^–1”, the “–TΔS” value was “–8.26 (±0.34) kJ mol^–1” and the Kd was determined as 1010 µM.
